In patent US8987195B2 (priority 2012, dated 2015):
pEC50, pIC50: −log10 of the molar value. Where two headings read alike, the source gives them in different places.

Tests used:
HCV genotype 1b replicon = test: HCV replicon assay, genotype 1b replicon EC50; format: cell-based, Hepatitis C virus; settings: read-out: EC50 [gt-1b]
Summary of the method: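 Compound dilution series incubated 24-48 h, G418 absent, with HCV genotype 1b replicon cell lines kept under G418 selection beforehand. Luciferase signal or replicon RNA, by ^32P hybridization/protection or TaqMan normalized to cyclophilin A, was measured after washing and lysis. Four-parameter fitting against DMSO control gave EC50.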

[1] = molecular target: HCV NS3/4A protease genotype 1b (Hepatitis C virus genotype 1b, UniProt P26663); test: HCV NS3/4A protease time-resolved fluorescence (TRF) assay, Ki against genotype 1b; format: biochemical; settings: for IC50: IC50 [gt-1b] (nM), NS3/4A genotype 1b, enzyme 0.2 nM; for pIC50: IC50 [gt-1b], NS3/4A protease TRF assay, genotype 1b enzyme 0.2 nM
Summary of the method: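 Enzyme was pre-incubated 30 min with inhibitor in HEPES pH 7.5 buffer (150 mM NaCl, 15% glycerol, 10 mM DTT). Reaction ran 2.5 h at room temperature with 25 nM europium TRF peptide substrate, read at ex 340/em 615 nm. Enzyme levels: 0.2 nM (1b), 0.4 nM (A156T), 0.025 nM (3a). Ki came from four-parameter IC50 via IC50=Ki(1+[S]/KM).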

[2] = Hepatitis C virus, HCV replicon, genotype 1b
[3] = Hepatitis C virus, genotype 1b replicon
[4] = Hepatitis C virus, genotype 1b replicon, K+ salt

| SMILES | IC50 [1] | pEC50 (HCV genotype 1b replicon; [2]) | pIC50 [1] | further results |
| --- | --- | --- | --- | --- |
| Cc1nc2ccccc2c2c1O[C@]1(CC2)C[C@H]2C(=O)N[C@]3(C(=O)NS(=O)(=O)C4(C)CC4)C[C@H]3/C=C\CCCCC[C@H](NC(=O)OC(C)C(F)(F)F)C(=O)N2C1 (stereo partly drawn) [Example 197, 1,1,1-trifluoropropan-2-yl [(2R,6S,12Z,13aS,14aR,16aS)-5′-methyl-14a-{[(1-methylcyclopropyl)sulfonyl]carbamoyl}-5,16-dioxo-1,1′,2′,5,6,7,8,9,10,11,13a,14,14a,15,16,16a-hexadecahydrospiro[cyclopropa[e]pyrrolo[1,2-a][1,4]diazacyclopentadecine-2,3′-pyrano[2,3-c]quinolin]-6-yl]carbamate] | 0.004 nM | – | – | pEC50 (HCV genotype 1b replicon; genotype 1b replicon): 8.01 |
| Cc1nc2ccccc2c2c1O[C@]1(CC2)C[C@H]2C(=O)N[C@]3(C(=O)NS(=O)(=O)C4(C)CC4)C[C@H]3/C=C\CCCCC[C@H](NC(=O)NCCc3ccccc3)C(=O)N2C1 [Example 288, (2R,6S,12Z,13aS,14aR,16aS)-5′-methyl-N-[(1-methylcyclopropyl)sulfonyl]-5,16-dioxo-6-{[(2-phenylethyl)carbamoyl]amino}-1,1′,2′,6,7,8,9,10,11,13a,14,15,16,16a-tetradecahydrospiro[cyclopropa[e]pyrrolo[1,2-a][1,4]diazacyclopentadecine-2,3′-pyrano[2,3-c]quinoline]-14a(5H)-carboxamide] | – | – | – | pEC50 (HCV genotype 1b replicon; Hepatitis C virus, genotype 1b replicon, HCOOH salt): 6.21; IC50 ([1]; HCOOH salt): 0.131 nM |
| CCc1nc2ccc(OCCCOC)cc2c2c1O[C@]1(CC2)C[C@H]2C(=O)N[C@]3(C(=O)NS(=O)(=O)C4(C)CC4)C[C@H]3/C=C\CCCCC[C@H](NC(=O)O[C@@H](C)C(C)C)C(=O)N2C1 [Example 487, (2S)-3-methylbutan-2-yl [(2R,6S,12Z,13aS,14aR,16aS)-5′-ethyl-9′-(3-methoxypropoxy)-14a-{[(1-methylcyclopropyl)sulfonyl]carbamoyl}-5,16-dioxo-1,1′,2′,5,6,7,8,9,10,11,13a,14,14a,15,16,16a-hexadecahydrospiro[cyclopropa[e]pyrrolo[1,2-a][1,4]diazacyclopentadecine-2,3′-pyrano[2,3-c]quinolin]-6-yl]carbamate] | – | – | – | pEC50 (HCV genotype 1b replicon; Hepatitis C virus, HCV replicon, genotype 1b, K+ salt): 9.47; pIC50 ([1]; K+ salt): 11.30 |
| Cc1nc2ccccc2c2c1O[C@]1(CC2)C[C@H]2C(=O)N[C@]3(C(=O)NS(=O)(=O)C4(C)CC4)C[C@H]3/C=C\CCCCC[C@H](NC(=O)OC3CC(F)(F)C3(F)F)C(=O)N2C1 (stereo partly drawn) [Example 321, 2,2,3,3-tetrafluorocyclobutyl [(2R,6S,12Z,13aS,14aR,16aS)-5′-methyl-14a-{[(1-methylcyclopropyl)sulfonyl]carbamoyl}-5,16-dioxo-1,1′,2′,5,6,7,8,9,10,11,13a,14,14a,15,16,16a-hexadecahydrospiro[cyclopropa[e]pyrrolo[1,2-a][1,4]diazacyclopentadecine-2,3′-pyrano[2,3-c]quinolin]-6-yl]carbamate] | 0.03 nM | – | – | pEC50 (HCV genotype 1b replicon; genotype 1b replicon): 8.15 |
| Cc1nc2ccc(OCCN3CCOCC3)cc2c2c1O[C@]1(CC2)C[C@H]2C(=O)N[C@]3(C(=O)NS(=O)(=O)C4(C)CC4)C[C@H]3/C=C\CCCCC[C@H](NC(=O)OC(C)(C)C)C(=O)N2C1 [Example 418, tert-butyl {(2R,6S,12Z,13aS,14aR,16aS)-5′-methyl-14a-{[(1-methylcyclopropyl)sulfonyl]carbamoyl}-9′-[2-(morpholin-4-yl)ethoxy]-5,16-dioxo-1,1′,2′,5,6,7,8,9,10,11,13a,14,14a,15,16,16a-hexadecahydrospiro[cyclopropa[e]pyrrolo[1,2-a][1,4]diazacyclopentadecine-2,3′-pyrano[2,3-c]quinolin]-6-yl}carbamate] | – | 8.20 | 11.10 | – |
| COc1ccc2nc(C(F)(F)F)c3c(c2c1)OC[C@]1(C[C@H]2C(=O)N[C@]4(C(=O)NS(=O)(=O)C5(C)CC5)C[C@@H]4/C=C/CCCCC[C@H](NC(=O)OC(C)(C)C)C(=O)N2C1)O3 [Example 517, tert-butyl [(2R,6S,12E,13aR,14aR,16aS)-9′-methoxy-14a-{[(1-methylcyclopropyl)sulfonyl]carbamoyl}-5,16-dioxo-5′-(trifluoromethyl)-1,5,6,7,8,9,10,11,13a,14,14a,15,16,16a-tetradecahydrospiro[cyclopropa[e]pyrrolo[1,2-a][1,4]diazacyclopentadecine-2,3′-[1,4]dioxino[2,3-c]quinolin]-6-yl]carbamate] | – | 8.05 | 7.95 | – |
| Cc1nc2ccc(C(F)(F)F)cc2c2c1O[C@]1(CC2)C[C@H]2C(=O)N[C@]3(C(=O)NS(=O)(=O)C4(C)CC4)C[C@H]3/C=C\CCCCC[C@H](NC(=O)OC(C)(C)C)C(=O)N2C1 [Example 251, tert-butyl [(2R,6S,12Z,13aS,14aR,16aS)-5′-methyl-14a-{[(1-methylcyclopropyl)sulfonyl]carbamoyl}-5,16-dioxo-9′-(trifluoromethyl)-1,1′,2′,5,6,7,8,9,10,11,13a,14,14a,15,16,16a-hexadecahydrospiro[cyclopropa[e]pyrrolo[1,2-a][1,4]diazacyclopentadecine-2,3′-pyrano[2,3-c]quinolin]-6-yl]carbamate] | 0.021 nM | – | – | pEC50 (HCV genotype 1b replicon; [3]): 7.84 |
| CCc1nc2ccc(OC)cc2c2c1O[C@]1(C[C@H]2F)C[C@H]2C(=O)N[C@]3(C(=O)NS(=O)(=O)C4(C)CC4)C[C@H]3/C=C\CCCCC[C@H](NC(=O)OC(C)(C)C)C(=O)N2C1 [Example 439, tert-butyl [(1′R,2S,6S,12Z,13aS,14aR,16aS)-5′-ethyl-1′-fluoro-9′-methoxy-14a-{[(1-methylcyclopropyl)sulfonyl]carbamoyl}-5,16-dioxo-1,1′,2′,5,6,7,8,9,10,11,13a,14,14a,15,16,16a-hexadecahydrospiro[cyclopropa[e]pyrrolo[1,2-a][1,4]diazacyclopentadecine-2,3′-pyrano[2,3-c]quinolin]-6-yl]carbamate] | – | 8.81 | 11.05 | – |
| Cc1nc2ccccc2c2c1O[C@]1(CC2)C[C@H]2C(=O)N[C@]3(C(=O)NS(=O)(=O)C4(C)CC4)C[C@H]3/C=C\CCCCC[C@H](NC(=O)N3CCCC3)C(=O)N2C1 [Example 61, (2R,6S,12Z,13aS,14aR,16aS)-5′-methyl-N-[(1-methylcyclopropyl)sulfonyl]-5,16-dioxo-6-[(pyrrolidin-1-ylcarbonyl)amino]-1,1′,2′,6,7,8,9,10,11,13a,14,15,16,16a-tetradecahydrospiro[cyclopropa[e]pyrrolo[1,2-a][1,4]diazacyclopentadecine-2,3′-pyrano[2,3-c]quinoline]-14a(5H)-carboxamide] | 0.015 nM | – | – | pEC50 (HCV genotype 1b replicon; [3]): 7.91 |
| CC(C)COC(=O)N[C@H]1CCCCC/C=C\[C@@H]2C[C@@]2(C(=O)NS(=O)(=O)C2(C)CC2)NC(=O)[C@@H]2C[C@]3(CCc4c(c(C(F)F)nc5ccc(Cl)cc45)O3)CN2C1=O [Example 368, 2-methylpropyl [(2R,6S,12Z,13aS,14aR,16aS)-9′-chloro-5′-(difluoromethyl)-14a-{[(1-methylcyclopropyl)sulfonyl]carbamoyl}-5,16-dioxo-1,1′,2′,5,6,7,8,9,10,11,13a,14,14a,15,16,16a-hexadecahydrospiro[cyclopropa[e]pyrrolo[1,2-a][1,4]diazacyclopentadecine-2,3′-pyrano[2,3-c]quinolin]-6-yl]carbamate] | – | 8.01 | 10.77 | – |
| COc1ccc2nc(C3CCC3)c3c(c2c1)CC[C@]1(C[C@H]2C(=O)NC4(C(=O)NS(=O)(=O)C5(C)CC5)C[C@H]4/C=C\CCCCC[C@H](NC(=O)OC(C)(C)C)C(=O)N2C1)O3 (stereo partly drawn) [Example 46, tert-Butyl (1aR,3aS,3′R,9S,16aS,Z)-5′-cyclobutyl-9′-methoxy-1a-(1-methylcyclopropylsulfonylcarbamoyl)-3,8-dioxo-1a,1′,2,2′,3,3a,4,6,8,9,10,11,12,13,14,16a-hexadecahydro-1H-spiro[cyclopropa[e]pyrrolo[1,2-a][1,4]diazacyclopentadecine-5,3′-pyrano[2,3-c]quinoline]-9-ylcarbamate] | – | – | – | pEC50 (HCV genotype 1b replicon; [4]): 9.40; IC50 ([1]; K+ salt): 0.02 nM |
| Cc1nc2ccc(Cl)cc2c2c1O[C@]1(CC2)C[C@H]2C(=O)N[C@]3(C(=O)NS(=O)(=O)C4(C)CC4)C[C@H]3/C=C\CCCCC[C@H](NC(=O)OC3(C)CC3)C(=O)N2C1 [Example 184, 1-methylcyclopropyl [(2R,6S,12Z,13aS,14aR,16aS)-9′-chloro-5′-methyl-14a-{[(1-methylcyclopropyl)sulfonyl]carbamoyl}-5,16-dioxo-1,1′,2′,5,6,7,8,9,10,11,13a,14,14a,15,16,16a-hexadecahydrospiro[cyclopropa[e]pyrrolo[1,2-a][1,4]diazacyclopentadecine-2,3′-pyrano[2,3-c]quinolin]-6-yl]carbamate] | – | – | – | pEC50 (HCV genotype 1b replicon; [4]): 8.37; IC50 ([1]; K+ salt): 0.004 nM |
| COC(=O)N[C@H]1CCCCC/C=C\[C@@H]2C[C@@]2(C(=O)NS(=O)(=O)C2(C)CC2)NC(=O)[C@@H]2C[C@]3(CCc4c(c(-c5cccc(F)c5)nc5ccccc45)O3)CN2C1=O [Example 88, methyl [(2R,6S,12Z,13aS,14aR,16aS)-5′-(3-fluorophenyl)-14a-{[(1-methylcyclopropyl)sulfonyl]carbamoyl}-5,16-dioxo-1,1′,2′,5,6,7,8,9,10,11,13a,14,14a,15,16,16a-hexadecahydrospiro[cyclopropa[e]pyrrolo[1,2-a][1,4]diazacyclopentadecine-2,3′-pyrano[2,3-c]quinolin]-6-yl]carbamate] | 0.202 nM | – | – | pEC50 (HCV genotype 1b replicon; [3]): 9.24 |
